# Data from US10954269B2, “Anti-inflammatory tripeptides” (Dr. August Wolff Gmbh & Co. KG Arzneimittel, priority 2013, dated 2021).
# How the values were obtained:
# primary human T-cells = assay: Cytokine secretion on protein level in activated primary human T-cells (13-plex FACS / Luminex, supernatant); assay type: cell-based; details: for IL-1 cytokine concentration / IL-2 cytokine concentration / IL-4 cytokine concentration / IL-5 cytokine concentration / IL-6 cytokine concentration / IL-9 cytokine concentration / IL-10 cytokine concentration / IL-12p70 cytokine concentration / IL-13 cytokine concentration / IL-17 cytokine concentration / IL-22 cytokine concentration / TNF-α cytokine concentration / INF-α cytokine concentration: substance 10^−9M
# Method: (§1) Primary T-cells were isolated from peripheral blood from healthy volunteers and from secondary lymphatic organs from naïve C57BL/6 mice, respectively. The cells were stimulated with phorbol-12-myristate-13-acetate (PMA)/Ionomycin and interferon-gamma (IFN-γ), respectively, for 48 h to activate the cells. The activated cells release pro-inflammatory cytokines. In parallel a human (HaCaT) keratinocyte cell line was activated with PMA/Ionomycin and IFN-γ, respectively, too. […] At the same time release of anti-inflammatory IL-10 was inhibited. Two days after addition of PMA/Ionomycin and IFN-γ, respectively, the induction of IL-1 secretion was determined in the supernatant for proving that the cells are activated. […] The anti-inflammatory properties of the tripeptides were determined 48 h and 72 h following stimulation. A 13-plex-system based FACS analysis was used for showing the reduced secretion of pro-inflammatory cytokines in the supernatant. Data for IL-1, IL-2, IL-6, IL-12p70 IL-17, IFN-γ and TNF-α are considered to be most relevant. Thus, analysis of the anti-inflammatory properties of the tripeptides is preferably based on the results obtained for these analytes. […] Using this method the gene expression of pro-inflammatory markers like IL-6, IL-17, IFN-γ and TNF-α was determined.
# (§2) In a third experiment murine and human T cells and HaCaT cells were stimulated with PMA/Ionomycin and treated with Examples 14, 15, 16 and 17 at 10^−7 M, 10^−9 M and 10^−11 M. Cytokine concentrations (IFN-γ, IL-17 and IL-10 for T cells and IFN-γ for HaCat) were assessed in the supernatants using the Luminex technology. Expression of genes coding for Il-1β, IL-6 and TNF-α was determined. […] Moreover, concentrations of pro-inflammatory cytokines IFN-γ and IL-17 was reduced in the supernatants whereas the concentration of anti-inflammatory cytokine IL-10 was increased. […]
# (§3) For the biological assay two human cell lines of different origin were chosen to allow for translation of the results obtained. A HaCaT cell is a cell type belonging to an immortal human keratinocyte line used in scientific research. Its use in research allows for the characterization of human keratinocyte using a model that is reproducible and representing a human epithelial cell line. In contrast human T-lymphocytes (T-cells) are a type of lymphocyte (itself a type of white blood cell) that play a central role in cell-mediated inflammation/immunity.
# [1] = test system: human keratinocyte cell line (HaCaT); assay: Cytokine secretion on protein level in activated human keratinocyte cell line HaCaT (13-plex FACS / Luminex, supernatant); assay type: cell-based; details: for IL-1 cytokine concentration / IL-2 cytokine concentration / IL-4 cytokine concentration / IL-5 cytokine concentration / IL-6 cytokine concentration / IL-9 cytokine concentration / IL-10 cytokine concentration / IL-12p70 cytokine concentration / IL-13 cytokine concentration / IL-17 cytokine concentration / IL-22 cytokine concentration / TNF-α cytokine concentration / IFN-γ cytokine concentration: substance 10^−9M
# Method: as §1, §2, §3
# primary murine T-cells = assay: Cytokine secretion on protein level in activated primary murine T-cells (13-plex FACS / Luminex, supernatant); assay type: cell-based, C57BL/6 mice; details: substance 10^−9M
# Method: as §1
# In a third experiment murine and human T cells and HaCaT cells were stimulated with PMA/Ionomycin and treated with Examples 14, 15, 16 and 17 at 10^−7 M, 10^−9 M and 10^−11 M. Cytokine concentrations (IFN-γ, IL-17 and IL-10 for T cells and IFN-γ for HaCat) were assessed in the supernatants using the Luminex technology. Expression of genes coding for Il-1β, IL-6 and TNF-α was determined. […] Moreover, concentrations of pro-inflammatory cytokines IFN-γ and IL-17 was reduced in the supernatants whereas the concentration of anti-inflammatory cytokine IL-10 was increased.
# The anti-inflammatory and immunomodulatory effects of selected examples of the present invention were compared with common immunosuppressants. Thus, cells activated with PMA/Ionomycin and IFN-γ, respectively, were stimulated with MMF or dexamethasone. Following stimulation the secretion of pro-inflammatory cytokines was analyzed on protein and gene level (Table 9 and FIGS. 4-6).
# [2] = primary human T-cells stimulated with IFN-γ
# [3] = primary human T-cells stimulated with PBS
# [4] = primary human T-cells stimulated with PMA/Ionomycin
# [5] = HaCaT stimulated with PMA/Ionomycin
# [6] = primary murine T-cells stimulated with IFN-γ
# [7] = primary murine T-cells stimulated with PBS
# [8] = primary murine T-cells stimulated with PMA/Ionomycin
substance,measurement,setting,value
"N^α,N^α-dimethyl-(L)-Nle-(D)-Pro-N^α-methyl-(L)-Thr-OH [Example 6]",secretion / expression of pro-inflammatory cytokines (supernatant),primary human T-cells; activated primary human T-cells,decreased expression
same,IL-1 cytokine concentration,primary human T-cells; [2],0 pg/mL
same,IL-2 cytokine concentration,primary human T-cells; [2],0 pg/mL
same,IL-4 cytokine concentration,primary human T-cells; [2],76.04 pg/mL
same,IL-5 cytokine concentration,primary human T-cells; [2],0 pg/mL
same,IL-6 cytokine concentration,primary human T-cells; [2],45.83 pg/mL
same,IL-9 cytokine concentration,primary human T-cells; [2],0 pg/mL
same,IL-10 cytokine concentration,primary human T-cells; [2],51.86 pg/mL
same,IL-12p70 cytokine concentration,primary human T-cells; [2],0 pg/mL
same,IL-13 cytokine concentration,primary human T-cells; [2],46.95 pg/mL
same,IL-17 cytokine concentration,primary human T-cells; [2],36.76 pg/mL
same,IL-22 cytokine concentration,primary human T-cells; [2],0 pg/mL
same,TNF-α cytokine concentration,primary human T-cells; [2],17.44 pg/mL
same,IL-1 cytokine concentration,primary human T-cells; [3],107.12 pg/mL
same,IL-2 cytokine concentration,primary human T-cells; [3],114.93 pg/mL
same,IL-5 cytokine concentration,primary human T-cells; [3],12.74 pg/mL
same,IL-6 cytokine concentration,primary human T-cells; [3],105.53 pg/mL
same,IL-9 cytokine concentration,primary human T-cells; [3],8.15 pg/mL
same,IL-10 cytokine concentration,primary human T-cells; [3],92.62 pg/mL
same,IL-12p70 cytokine concentration,primary human T-cells; [3],0 pg/mL
same,IL-13 cytokine concentration,primary human T-cells; [3],0 pg/mL
same,IL-17 cytokine concentration,primary human T-cells; [3],113.52 pg/mL
same,IL-22 cytokine concentration,primary human T-cells; [3],0 pg/mL
same,INF-α cytokine concentration,primary human T-cells; [3],0 pg/mL
same,TNF-α cytokine concentration,primary human T-cells; [3],28.11 pg/mL
same,IL-1 cytokine concentration,primary human T-cells; [4],533.57 pg/mL
same,IL-2 cytokine concentration,primary human T-cells; [4],2005.81 pg/mL
same,IL-4 cytokine concentration,primary human T-cells; [4],87.24 pg/mL
same,IL-5 cytokine concentration,primary human T-cells; [4],312.5 pg/mL
same,IL-6 cytokine concentration,primary human T-cells; [4],1194.58 pg/mL
same,IL-9 cytokine concentration,primary human T-cells; [4],238.28 pg/mL
same,IL-10 cytokine concentration,primary human T-cells; [4],999.32 pg/mL
same,IL-12p70 cytokine concentration,primary human T-cells; [4],0 pg/mL
same,IL-13 cytokine concentration,primary human T-cells; [4],1050.19 pg/mL
same,IL-17 cytokine concentration,primary human T-cells; [4],1388.88 pg/mL
same,IL-22 cytokine concentration,primary human T-cells; [4],0 pg/mL
same,INF-α cytokine concentration,primary human T-cells; [4],7597.87 pg/mL
same,TNF-α cytokine concentration,primary human T-cells; [4],2638.52 pg/mL
same,IL-1 cytokine concentration,[1]; HaCaT stimulated with IFN-γ,0 pg/mL
same,IL-2 cytokine concentration,[1]; HaCaT stimulated with IFN-γ,17.47 pg/mL
same,IL-4 cytokine concentration,[1]; HaCaT stimulated with IFN-γ,0 pg/mL
same,IL-5 cytokine concentration,[1]; HaCaT stimulated with IFN-γ,0 pg/mL
same,IL-6 cytokine concentration,[1]; HaCaT stimulated with IFN-γ,202.37 pg/mL
same,IL-9 cytokine concentration,[1]; HaCaT stimulated with IFN-γ,0 pg/mL
same,IL-10 cytokine concentration,[1]; HaCaT stimulated with IFN-γ,0 pg/mL
same,IL-12p70 cytokine concentration,[1]; HaCaT stimulated with IFN-γ,0 pg/mL
same,IL-13 cytokine concentration,[1]; HaCaT stimulated with IFN-γ,1872.11 pg/mL
same,IL-17 cytokine concentration,[1]; HaCaT stimulated with IFN-γ,0 pg/mL
same,IL-22 cytokine concentration,[1]; HaCaT stimulated with IFN-γ,0 pg/mL
same,TNF-α cytokine concentration,[1]; HaCaT stimulated with IFN-γ,0 pg/mL
same,IFN-γ cytokine concentration,[1]; HaCaT stimulated with PBS,0 pg/mL
same,IL-1 cytokine concentration,[1]; HaCaT stimulated with PBS,25.45 pg/mL
same,IL-2 cytokine concentration,[1]; HaCaT stimulated with PBS,0 pg/mL
same,IL-4 cytokine concentration,[1]; HaCaT stimulated with PBS,91.99 pg/mL
same,IL-5 cytokine concentration,[1]; HaCaT stimulated with PBS,0 pg/mL
same,IL-6 cytokine concentration,[1]; HaCaT stimulated with PBS,52.48 pg/mL
same,IL-9 cytokine concentration,[1]; HaCaT stimulated with PBS,0 pg/mL
same,IL-10 cytokine concentration,[1]; HaCaT stimulated with PBS,57.95 pg/mL
same,IL-12p70 cytokine concentration,[1]; HaCaT stimulated with PBS,0 pg/mL
same,IL-13 cytokine concentration,[1]; HaCaT stimulated with PBS,0 pg/mL
same,IL-17 cytokine concentration,[1]; HaCaT stimulated with PBS,26.72 pg/mL
same,IL-22 cytokine concentration,[1]; HaCaT stimulated with PBS,0 pg/mL
same,TNF-α cytokine concentration,[1]; HaCaT stimulated with PBS,8.21 pg/mL
same,IFN-γ cytokine concentration,[1]; [5],0 pg/mL
same,IL-1 cytokine concentration,[1]; [5],62.07 pg/mL
same,IL-2 cytokine concentration,[1]; [5],16.53 pg/mL
same,IL-4 cytokine concentration,[1]; [5],0 pg/mL
same,IL-5 cytokine concentration,[1]; [5],0 pg/mL
same,IL-6 cytokine concentration,[1]; [5],248.33 pg/mL
same,IL-9 cytokine concentration,[1]; [5],3.71 pg/mL
same,IL-10 cytokine concentration,[1]; [5],64.03 pg/mL
same,IL-12p70 cytokine concentration,[1]; [5],0 pg/mL
same,IL-13 cytokine concentration,[1]; [5],0 pg/mL
same,IL-17 cytokine concentration,[1]; [5],21.52 pg/mL
same,IL-22 cytokine concentration,[1]; [5],0 pg/mL
same,TNF-α cytokine concentration,[1]; [5],5.37 pg/mL
same,secretion / expression of pro-inflammatory cytokines (supernatant),[1]; activated human keratinocytes,decreased expression
same,IL-1 cytokine concentration,primary murine T-cells; [6],95.15 pg/mL
same,IL-2 cytokine concentration,primary murine T-cells; [6],181.25 pg/mL
same,IL-4 cytokine concentration,primary murine T-cells; [6],156.84 pg/mL
same,IL-5 cytokine concentration,primary murine T-cells; [6],517.47 pg/mL
same,IL-6 cytokine concentration,primary murine T-cells; [6],223.98 pg/mL
same,IL-10 cytokine concentration,primary murine T-cells; [6],1782.7 pg/mL
same,IL-13 cytokine concentration,primary murine T-cells; [6],0 pg/mL
same,IL-17 cytokine concentration,primary murine T-cells; [6],189.88 pg/mL
same,IL-21 cytokine concentration,primary murine T-cells; [6],251.06 pg/mL
same,IL-22 cytokine concentration,primary murine T-cells; [6],73.27 pg/mL
same,IL-27 cytokine concentration,primary murine T-cells; [6],0 pg/mL
same,TNF-α cytokine concentration,primary murine T-cells; [6],40.87 pg/mL
same,IFN-γ cytokine concentration,primary murine T-cells; [7],546.71 pg/mL
same,IL-1 cytokine concentration,primary murine T-cells; [7],106.27 pg/mL
same,IL-2 cytokine concentration,primary murine T-cells; [7],204.71 pg/mL
same,IL-4 cytokine concentration,primary murine T-cells; [7],39.23 pg/mL
same,IL-5 cytokine concentration,primary murine T-cells; [7],407.29 pg/mL
same,IL-6 cytokine concentration,primary murine T-cells; [7],170.46 pg/mL
same,IL-10 cytokine concentration,primary murine T-cells; [7],1391.3 pg/mL
same,IL-13 cytokine concentration,primary murine T-cells; [7],0 pg/mL
same,IL-17 cytokine concentration,primary murine T-cells; [7],0 pg/mL
same,IL-21 cytokine concentration,primary murine T-cells; [7],0 pg/mL
same,IL-22 cytokine concentration,primary murine T-cells; [7],16.55 pg/mL
same,IL-27 cytokine concentration,primary murine T-cells; [7],108.06 pg/mL
same,TNF-α cytokine concentration,primary murine T-cells; [7],0 pg/mL
same,IFN-γ cytokine concentration,primary murine T-cells; [8],8164.35 pg/mL
same,IL-1 cytokine concentration,primary murine T-cells; [8],486.85 pg/mL
same,IL-2 cytokine concentration,primary murine T-cells; [8],218.69 pg/mL
same,IL-4 cytokine concentration,primary murine T-cells; [8],164.69 pg/mL
same,IL-5 cytokine concentration,primary murine T-cells; [8],380.37 pg/mL
same,IL-6 cytokine concentration,primary murine T-cells; [8],237.95 pg/mL
same,IL-10 cytokine concentration,primary murine T-cells; [8],988.64 pg/mL
same,IL-13 cytokine concentration,primary murine T-cells; [8],0 pg/mL
same,IL-17 cytokine concentration,primary murine T-cells; [8],200.32 pg/mL
same,IL-21 cytokine concentration,primary murine T-cells; [8],470.65 pg/mL
same,IL-22 cytokine concentration,primary murine T-cells; [8],85.67 pg/mL
same,IL-27 cytokine concentration,primary murine T-cells; [8],95.51 pg/mL
same,TNF-α cytokine concentration,primary murine T-cells; [8],72.81 pg/mL
